Six compounds from patent publication US9357779B2 (priority 2010, dated 2016) can be followed below.

The test system of one series is Phytophthora infestans. In kind it is in vivo. Particulars: tomato plants, protective, active compound concentration 500 ppm, evaluation 7 days after inoculation.
Another series concerns Plasmopara viticola. Put plainly: Plasmopara test (grapevine)/protective. In kind it is in vivo. Conditions: protective, active compound concentration 500 ppm, evaluation 6 days after inoculation. As to the method:
Plasmopara Test (Grapevine)/Protective
To produce a suitable preparation of active compound, 1 part by weight of active compound is mixed with the stated amounts of solvent and emulsifier, and the concentrate is diluted with water to the desired concentration.
To test for protective activity, young plants are sprayed with the preparation of active compound at the stated application rate. After the spray coating has dried on, the plants are inoculated with an aqueous spore suspension of Plasmopara viticola and then remain in an incubation cabin at about 20° C. and 100% relative atmospheric humidity for 1 day. The plants are then placed in a greenhouse at about 21° C. and about 90% atmospheric humidity for 4 days. The plants are then moistened and placed in an incubation cabin for 1 day.
Evaluation is carried out 6 days after the inoculation. 0% means an efficacy which corresponds to that of the control, whereas an efficacy of 100% means that no infection is observed.

For series [1] the following is noted: acidic range, pH 2.7, 0.1% aqueous formic acid/acetonitrile.
Method: (§1) Calibration was carried out using unbranched alkan-2-ones (having from 3 to 16 carbon atoms) with known log P values (the log P values were determined by the retention times using linear interpolation between two successive alkanones).
The mark [2] stands for this setting: pH 2.7, log P [a], acidic range, pH 2.7, 0.1% aqueous formic acid/acetonitrile.

Method for physchem: as §1

On to `O=C(/C=C/c1csc(C2CCN(C(=O)Cn3nc(C(F)F)cc3C(F)F)CC2)n1)c1c(F)cccc1F` [Compound I-22, (2E)-3-[2-(1-{[3,5-Bis(difluoromethyl)-1H-pyrazol-1-yl]acetyl}piperidin-4-yl)-1,3-thiazol-4-yl]-1-(2,6-difluorophenyl)prop-2-en-1-one], for which the efficacy in the series on Phytophthora infestans and in the series with Plasmopara viticola was 100% in each case. Also, the chromatographic logP in “physchem” (setting [2]) turned out to be 3.35.
For the compound `O=C(/C=C/c1csc(C2CCN(C(=O)Cn3nc(C(F)F)cc3C(F)F)CC2)n1)C1CCCC1` [Compound I-49], the efficacy with Phytophthora infestans is listed as 90%; in the series with Plasmopara viticola it was 79%. For the same compound, the “log P [a]” value in series [1] is 3.52^[a].
With `Cc1ccc(Cl)cc1NC(=O)N1CCC(c2nc(C(=O)CC3CCCCC3)cs2)CC1` [Compound I-25, N-(5-Chloro-2-methylphenyl)-4-[4-(cyclohexylacetyl)-1,3-thiazol-2-yl]piperidine-1-carboxamide], the efficacy in the series with Phytophthora infestans is 100%; in the series on Plasmopara viticola, 96%. Besides, the chromatographic logP in the series “physchem” (setting [2]) was 4.51; in the series “physchem” (pH 7.8), 4.55.
Consider `O=C(/C=C/c1csc(C2CCN(C(=O)Cn3nc(C(F)F)cc3C(F)F)CC2)n1)C1CCCCC1` [Compound I-44], for which the results for the efficacy in the series with Phytophthora infestans and with Plasmopara viticola were 95% and 74%, respectively. For the same compound, the “log P [a]” value in series [1] was 3.89^[a].
As for `O=C(/C=C/c1csc(C2CCN(C(=O)Cn3nc(C(F)F)cc3C(F)F)CC2)n1)c1c(F)cccc1Cl` [Compound I-36], the efficacy in the series on Phytophthora infestans was 100%; with Plasmopara viticola, 96%. In series [1], the “log P [a]” value is 3.54^[a];.
The matching figures for `Cc1ccccc1C(=O)/C=C/c1csc(C2CCN(C(=O)Cn3nc(C(F)F)cc3C(F)F)CC2)n1` [Compound I-45]: 95%, 100% and 3.56^[a].
